Reference: ChEMBL document CHEMBL4507297, “Data for DCP probe PF-04457845” (2021)

Assays:
[1] = target: Leukocyte tyrosine kinase receptor (Homo sapiens) (UniProt P29376); settings: Compound concentration 1000.0 nM
[2] = target: Muscarinic acetylcholine receptor M4 (Homo sapiens) (UniProt P08173); settings: Compound concentration 10.0 uM
[3] = target: Citron Rho-interacting kinase (Homo sapiens) (UniProt O14578); settings: Compound concentration 1000.0 nM
[4] = target: SRSF protein kinase 3 (Homo sapiens) (UniProt Q9UPE1); settings: Compound concentration 1000.0 nM
[5] = target: T1, 5-hydroxytryptamine receptor 2C (Homo sapiens) (UniProt P28335); settings: Compound concentration 10.0 uM
T1 sequence (whole entry): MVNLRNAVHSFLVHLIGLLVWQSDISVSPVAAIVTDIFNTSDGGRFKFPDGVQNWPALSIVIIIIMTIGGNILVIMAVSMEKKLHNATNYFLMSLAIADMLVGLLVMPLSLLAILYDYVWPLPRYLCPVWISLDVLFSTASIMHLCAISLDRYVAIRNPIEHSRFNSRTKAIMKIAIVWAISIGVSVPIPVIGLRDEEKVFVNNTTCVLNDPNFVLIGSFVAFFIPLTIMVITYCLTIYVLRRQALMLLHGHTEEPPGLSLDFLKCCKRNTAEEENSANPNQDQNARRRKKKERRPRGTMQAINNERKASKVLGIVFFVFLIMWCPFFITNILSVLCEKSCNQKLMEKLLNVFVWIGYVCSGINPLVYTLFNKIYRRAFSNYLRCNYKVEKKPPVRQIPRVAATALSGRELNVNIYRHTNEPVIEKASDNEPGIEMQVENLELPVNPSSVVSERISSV

[6] = target: Serine/threonine-protein kinase MAK (Homo sapiens) (UniProt P20794); settings: Compound concentration 1000.0 nM
[7] = target: Dual specificity mitogen-activated protein kinase kinase 1 (Homo sapiens) (UniProt Q02750); settings: Compound concentration 1000.0 nM
Dual specificity mitogen-activated protein kinase kinase 1 (Homo sapiens), sequence (Q02750 whole entry): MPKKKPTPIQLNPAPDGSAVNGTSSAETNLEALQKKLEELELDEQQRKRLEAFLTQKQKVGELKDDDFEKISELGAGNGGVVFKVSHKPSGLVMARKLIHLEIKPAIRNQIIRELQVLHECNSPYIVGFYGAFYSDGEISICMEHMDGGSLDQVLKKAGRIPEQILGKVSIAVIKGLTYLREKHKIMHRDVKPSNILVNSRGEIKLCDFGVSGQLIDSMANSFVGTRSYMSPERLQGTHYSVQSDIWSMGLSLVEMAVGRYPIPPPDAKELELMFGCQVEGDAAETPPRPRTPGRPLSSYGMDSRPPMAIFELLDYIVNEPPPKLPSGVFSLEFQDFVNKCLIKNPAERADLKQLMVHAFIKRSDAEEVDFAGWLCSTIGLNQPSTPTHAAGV

[8] = target: Serine/threonine-protein kinase LATS1 (Homo sapiens) (UniProt O95835); settings: Compound concentration 1000.0 nM
[9] = target: Cyclin-dependent kinase 2 homolog (Plasmodium falciparum (isolate 3D7)) (UniProt P61075); settings: Compound concentration 1000.0 nM
[10] = target: MAP kinase-interacting serine/threonine-protein kinase 1 (Homo sapiens) (UniProt Q9BUB5); settings: Compound concentration 1000.0 nM
[11] = target: Tyrosine-protein kinase Tec (Homo sapiens) (UniProt P42680); settings: Compound concentration 1000.0 nM
[12] = target: Phosphatidylinositol 4,5-bisphosphate 3-kinase catalytic subunit alpha isoform (Homo sapiens) (UniProt P42336); settings: Compound concentration 1000.0 nM
[13] = target: Ephrin type-A receptor 1 (Homo sapiens) (UniProt P21709); settings: Compound concentration 1000.0 nM
[14] = tested on: Phosphatidylinositol 4,5-bisphosphate 3-kinase catalytic subunit alpha isoform (Homo sapiens), P42336 [E545K]; settings: Compound concentration 1000.0 nM
[15] = target: Serine/threonine-protein kinase NIM1 (Homo sapiens) (UniProt Q8IY84); settings: Compound concentration 1000.0 nM
[16] = target: Activin receptor type-1 (Homo sapiens) (UniProt Q04771); settings: Compound concentration 1000.0 nM
[17] = target: Activin receptor type-1-like (Homo sapiens) (UniProt P37023); settings: Compound concentration 1000.0 nM
[18] = tested on: Hepatocyte growth factor receptor (Homo sapiens), P08581 [Y1235D]; settings: Compound concentration 1000.0 nM
[19] = target: STE20/SPS1-related proline-alanine-rich protein kinase (Homo sapiens) (UniProt Q9UEW8); settings: Compound concentration 1000.0 nM
[20] = target: Serine/threonine-protein kinase D3 (Homo sapiens) (UniProt O94806); settings: Compound concentration 1000.0 nM
Serine/threonine-protein kinase D3 (Homo sapiens), sequence (O94806 whole entry): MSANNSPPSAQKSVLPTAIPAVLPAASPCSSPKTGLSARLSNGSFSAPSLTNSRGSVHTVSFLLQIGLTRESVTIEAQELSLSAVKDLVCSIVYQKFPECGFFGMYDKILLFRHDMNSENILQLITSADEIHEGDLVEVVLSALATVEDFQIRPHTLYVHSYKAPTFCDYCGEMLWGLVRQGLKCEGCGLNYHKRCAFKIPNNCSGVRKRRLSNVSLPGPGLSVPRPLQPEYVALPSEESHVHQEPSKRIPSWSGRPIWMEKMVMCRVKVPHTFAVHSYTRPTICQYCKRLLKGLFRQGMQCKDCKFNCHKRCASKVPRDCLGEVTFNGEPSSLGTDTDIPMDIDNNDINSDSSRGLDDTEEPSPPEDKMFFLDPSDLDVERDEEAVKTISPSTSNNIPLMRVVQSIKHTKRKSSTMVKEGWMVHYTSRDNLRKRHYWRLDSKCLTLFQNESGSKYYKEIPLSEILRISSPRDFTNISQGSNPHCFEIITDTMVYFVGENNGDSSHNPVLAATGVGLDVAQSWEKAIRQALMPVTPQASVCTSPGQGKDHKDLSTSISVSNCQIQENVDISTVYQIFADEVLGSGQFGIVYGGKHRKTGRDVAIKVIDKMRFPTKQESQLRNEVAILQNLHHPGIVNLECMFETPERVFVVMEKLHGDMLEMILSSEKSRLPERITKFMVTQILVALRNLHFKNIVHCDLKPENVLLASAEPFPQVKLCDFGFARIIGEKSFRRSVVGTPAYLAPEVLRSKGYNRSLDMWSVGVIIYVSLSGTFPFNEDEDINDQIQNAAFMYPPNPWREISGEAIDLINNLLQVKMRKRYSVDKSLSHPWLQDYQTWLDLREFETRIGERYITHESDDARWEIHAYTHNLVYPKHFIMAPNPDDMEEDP

[21] = target: Serine/threonine-protein kinase MRCK gamma (Homo sapiens) (UniProt Q6DT37); settings: Compound concentration 1000.0 nM
[22] = target: 5-hydroxytryptamine receptor 2B (Homo sapiens, UniProt P41595); settings: Compound concentration 10.0 uM
[23] = tested on: Receptor-type tyrosine-protein kinase FLT3 (Homo sapiens), P36888 [K663Q]; settings: Compound concentration 1000.0 nM
[24] = target: Ribosomal protein S6 kinase alpha-6 (Homo sapiens) (UniProt Q9UK32); settings: Compound concentration 1000.0 nM
[25] = target: Serine/threonine-protein kinase SBK1 (Homo sapiens) (UniProt Q52WX2); settings: Compound concentration 1000.0 nM
[26] = target: Serine/threonine-protein kinase 17A (Homo sapiens) (UniProt Q9UEE5); settings: Compound concentration 1000.0 nM
[27] = target: Casein kinase I isoform gamma-3 (Homo sapiens) (UniProt Q9Y6M4); settings: Compound concentration 1000.0 nM
[28] = target: Inhibitor of nuclear factor kappa-B kinase subunit epsilon (Homo sapiens) (UniProt Q14164); settings: Compound concentration 1000.0 nM
[29] = target: Phosphatidylinositol 3-kinase C2 domain-containing subunit gamma (Homo sapiens) (UniProt O75747); settings: Compound concentration 1000.0 nM
Phosphatidylinositol 3-kinase C2 domain-containing subunit gamma (Homo sapiens), sequence (O75747 whole entry, the tested form may be a part): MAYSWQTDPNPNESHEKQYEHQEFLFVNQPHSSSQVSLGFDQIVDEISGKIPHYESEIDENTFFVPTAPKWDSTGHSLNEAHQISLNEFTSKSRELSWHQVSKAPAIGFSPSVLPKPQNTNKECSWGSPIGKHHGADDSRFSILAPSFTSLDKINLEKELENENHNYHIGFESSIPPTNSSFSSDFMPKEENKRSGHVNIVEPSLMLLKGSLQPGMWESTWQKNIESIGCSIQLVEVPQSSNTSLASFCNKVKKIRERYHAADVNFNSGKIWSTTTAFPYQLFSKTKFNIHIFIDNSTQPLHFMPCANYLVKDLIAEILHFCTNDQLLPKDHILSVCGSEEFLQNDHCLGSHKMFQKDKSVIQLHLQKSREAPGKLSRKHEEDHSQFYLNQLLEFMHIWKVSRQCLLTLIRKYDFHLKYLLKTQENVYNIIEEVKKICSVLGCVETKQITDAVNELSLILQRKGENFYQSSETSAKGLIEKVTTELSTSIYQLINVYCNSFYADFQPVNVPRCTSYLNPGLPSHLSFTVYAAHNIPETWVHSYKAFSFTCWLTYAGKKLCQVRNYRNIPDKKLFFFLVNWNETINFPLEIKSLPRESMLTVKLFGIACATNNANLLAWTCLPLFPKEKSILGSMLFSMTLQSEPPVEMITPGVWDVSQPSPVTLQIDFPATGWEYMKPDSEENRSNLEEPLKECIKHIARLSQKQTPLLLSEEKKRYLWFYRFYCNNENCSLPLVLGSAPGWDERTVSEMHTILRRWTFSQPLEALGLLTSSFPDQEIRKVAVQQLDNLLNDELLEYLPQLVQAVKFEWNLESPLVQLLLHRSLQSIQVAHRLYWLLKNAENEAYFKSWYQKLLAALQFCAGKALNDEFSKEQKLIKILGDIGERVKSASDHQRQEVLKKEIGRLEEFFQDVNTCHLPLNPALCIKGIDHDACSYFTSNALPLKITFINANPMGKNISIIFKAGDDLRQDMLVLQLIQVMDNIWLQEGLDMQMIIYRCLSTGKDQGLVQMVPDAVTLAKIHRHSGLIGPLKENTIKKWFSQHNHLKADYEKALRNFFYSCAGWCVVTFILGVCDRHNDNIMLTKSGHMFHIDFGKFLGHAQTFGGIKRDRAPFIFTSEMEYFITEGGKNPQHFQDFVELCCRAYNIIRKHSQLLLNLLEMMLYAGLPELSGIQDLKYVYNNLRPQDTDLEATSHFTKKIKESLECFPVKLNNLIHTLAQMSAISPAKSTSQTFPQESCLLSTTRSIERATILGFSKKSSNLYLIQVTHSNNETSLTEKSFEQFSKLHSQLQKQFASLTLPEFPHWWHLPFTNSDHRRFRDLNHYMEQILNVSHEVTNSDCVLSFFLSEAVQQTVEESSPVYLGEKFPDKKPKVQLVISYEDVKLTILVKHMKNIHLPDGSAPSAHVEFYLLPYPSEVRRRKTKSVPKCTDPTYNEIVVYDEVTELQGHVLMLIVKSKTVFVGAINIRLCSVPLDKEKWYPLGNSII

[30] = target: Calcium/calmodulin-dependent protein kinase type IV (Homo sapiens) (UniProt Q16566); settings: Compound concentration 1000.0 nM
[31] = target: Serine/threonine-protein kinase 32B (Homo sapiens) (UniProt Q9NY57); settings: Compound concentration 1000.0 nM
[32] = target: Tyrosine-protein kinase ITK/TSK (Homo sapiens) (UniProt Q08881); settings: Compound concentration 1000.0 nM
[33] = tested on: Epidermal growth factor receptor (Homo sapiens), P00533 [UNDEFINED MUTATION]; settings: Compound concentration 1000.0 nM
[34] = target: Serine/threonine-protein kinase pim-3 (Homo sapiens) (UniProt Q86V86); settings: Compound concentration 1000.0 nM
[35] = target: Serine/threonine-protein kinase TBK1 (Homo sapiens) (UniProt Q9UHD2); settings: Compound concentration 1000.0 nM
[36] = target: Megakaryocyte-associated tyrosine-protein kinase (Homo sapiens) (UniProt P42679); settings: Compound concentration 1000.0 nM
[37] = target: Tyrosine-protein kinase Fer (Homo sapiens) (UniProt P16591); settings: Compound concentration 1000.0 nM
[38] = tested on: Tyrosine-protein kinase ABL1 (Homo sapiens), P00519 [F317L]; settings: Compound concentration 1000.0 nM
Tyrosine-protein kinase ABL1 (Homo sapiens), P00519 [F317L], sequence (P00519 whole entry F317L): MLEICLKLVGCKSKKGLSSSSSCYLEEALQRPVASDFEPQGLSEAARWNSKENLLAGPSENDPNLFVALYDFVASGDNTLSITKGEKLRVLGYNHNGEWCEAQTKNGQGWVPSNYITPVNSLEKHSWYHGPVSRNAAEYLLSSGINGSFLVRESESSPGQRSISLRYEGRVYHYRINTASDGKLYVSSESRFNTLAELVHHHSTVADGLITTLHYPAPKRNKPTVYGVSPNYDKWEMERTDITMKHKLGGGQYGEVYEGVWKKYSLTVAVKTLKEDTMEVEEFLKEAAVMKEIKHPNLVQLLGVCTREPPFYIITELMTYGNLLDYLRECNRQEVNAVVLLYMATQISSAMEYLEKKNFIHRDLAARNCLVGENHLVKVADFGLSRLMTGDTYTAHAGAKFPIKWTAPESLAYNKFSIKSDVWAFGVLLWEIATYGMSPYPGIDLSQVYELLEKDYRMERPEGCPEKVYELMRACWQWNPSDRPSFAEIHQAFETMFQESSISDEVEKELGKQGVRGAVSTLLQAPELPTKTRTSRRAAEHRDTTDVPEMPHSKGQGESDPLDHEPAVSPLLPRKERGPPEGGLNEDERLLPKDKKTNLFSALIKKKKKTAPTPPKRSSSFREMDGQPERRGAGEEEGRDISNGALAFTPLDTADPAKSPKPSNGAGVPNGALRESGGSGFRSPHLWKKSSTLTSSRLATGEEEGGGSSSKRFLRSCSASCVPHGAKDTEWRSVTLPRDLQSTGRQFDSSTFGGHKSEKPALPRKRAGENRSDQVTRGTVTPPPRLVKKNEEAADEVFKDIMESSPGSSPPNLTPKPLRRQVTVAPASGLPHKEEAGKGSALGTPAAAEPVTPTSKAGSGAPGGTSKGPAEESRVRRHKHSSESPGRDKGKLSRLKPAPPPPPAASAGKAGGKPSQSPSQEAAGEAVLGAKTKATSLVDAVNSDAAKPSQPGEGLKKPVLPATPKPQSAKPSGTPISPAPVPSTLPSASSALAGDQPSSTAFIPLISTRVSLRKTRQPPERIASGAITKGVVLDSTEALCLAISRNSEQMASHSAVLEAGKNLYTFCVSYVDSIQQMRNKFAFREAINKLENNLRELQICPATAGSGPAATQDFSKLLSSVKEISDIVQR

Leukocyte tyrosine kinase receptor (Homo sapiens), sequence (P29376 whole entry): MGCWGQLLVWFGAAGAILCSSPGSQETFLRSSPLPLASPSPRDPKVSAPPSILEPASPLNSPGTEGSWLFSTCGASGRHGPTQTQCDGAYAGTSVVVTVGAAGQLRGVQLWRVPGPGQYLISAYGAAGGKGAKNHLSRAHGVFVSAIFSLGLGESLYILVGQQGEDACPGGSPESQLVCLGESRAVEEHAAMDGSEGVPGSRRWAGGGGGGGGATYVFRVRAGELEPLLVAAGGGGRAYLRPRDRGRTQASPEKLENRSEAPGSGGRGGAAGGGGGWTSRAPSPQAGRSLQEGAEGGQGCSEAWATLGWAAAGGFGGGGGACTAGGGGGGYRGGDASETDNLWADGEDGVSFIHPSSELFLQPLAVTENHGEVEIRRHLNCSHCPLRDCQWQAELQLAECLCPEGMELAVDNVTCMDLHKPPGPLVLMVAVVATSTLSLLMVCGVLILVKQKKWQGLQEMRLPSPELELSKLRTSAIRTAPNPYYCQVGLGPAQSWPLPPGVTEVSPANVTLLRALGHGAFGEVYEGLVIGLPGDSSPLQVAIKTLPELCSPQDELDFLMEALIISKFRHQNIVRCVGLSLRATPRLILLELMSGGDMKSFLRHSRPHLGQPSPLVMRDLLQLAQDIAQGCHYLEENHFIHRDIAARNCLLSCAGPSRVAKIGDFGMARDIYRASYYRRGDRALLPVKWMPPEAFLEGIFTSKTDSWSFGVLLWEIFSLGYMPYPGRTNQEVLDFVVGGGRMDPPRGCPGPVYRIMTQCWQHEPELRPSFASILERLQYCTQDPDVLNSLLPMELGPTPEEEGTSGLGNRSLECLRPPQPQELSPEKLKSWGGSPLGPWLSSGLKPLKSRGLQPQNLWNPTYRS

**Q.** `O=C(Nc1cccnn1)N1CCC(=Cc2cccc(Oc3ccc(C(F)(F)F)cn3)c2)CC1` was tested. Which residual activity [1] did it give?
**A.** 74%

**Q.** What about the inhibition [2] of the same molecule?
**A.** 7.38%

**Q.** And the residual activity [3]?
**A.** 79%

**Q.** What about the residual activity [4] of the same molecule?
**A.** 81%

**Q.** What about the inhibition [5] of the same molecule?
**A.** 64.6%

**Q.** What about the residual activity [6] of the same molecule?
**A.** 100%

**Q.** What about the residual activity [7] of the same molecule?
**A.** 100%

**Q.** What about the residual activity [8] of the same molecule?
**A.** 100%

**Q.** What about the residual activity [9] of the same molecule?
**A.** 100%

**Q.** And the residual activity [10]?
**A.** 100%

**Q.** And the residual activity [11]?
**A.** 100%

**Q.** And the residual activity [12]?
**A.** 100%

**Q.** And the residual activity [13]?
**A.** 100%

**Q.** What about the residual activity [14] of the same molecule?
**A.** 100%

**Q.** What about the residual activity [15] of the same molecule?
**A.** 100%

**Q.** What about the residual activity [16] of the same molecule?
**A.** 92%

**Q.** And the residual activity [17]?
**A.** 77%

**Q.** What about the residual activity [18] of the same molecule?
**A.** 100%

**Q.** And the residual activity [19]?
**A.** 100%

**Q.** And the residual activity [20]?
**A.** 83%

**Q.** What about the residual activity [21] of the same molecule?
**A.** 84%

**Q.** What about the inhibition [22] of the same molecule?
**A.** 55.7%

**Q.** What about the residual activity [23] of the same molecule?
**A.** 100%

**Q.** And the residual activity [24]?
**A.** 100%

**Q.** And the residual activity [25]?
**A.** 100%

**Q.** And the residual activity [26]?
**A.** 79%

**Q.** What about the residual activity [27] of the same molecule?
**A.** 100%

**Q.** What about the residual activity [28] of the same molecule?
**A.** 100%

**Q.** What about the residual activity [29] of the same molecule?
**A.** 95%

**Q.** What about the residual activity [30] of the same molecule?
**A.** 63%

**Q.** And the residual activity [31]?
**A.** 82%

**Q.** And the residual activity [32]?
**A.** 100%

**Q.** And the residual activity [33]?
**A.** 83%

**Q.** And the residual activity [34]?
**A.** 79%

**Q.** And the residual activity [35]?
**A.** 100%

**Q.** And the residual activity [36]?
**A.** 100%

**Q.** And the residual activity [37]?
**A.** 74%

**Q.** What about the residual activity [38] of the same molecule?
**A.** 94%

**Q.** Which results are given for `O=C(Nc1cccnn1)N1CC(C/C=C/c2cncc(Oc3ccc(C(F)(F)F)cn3)n2)C1`?
**A.** residual activity [1]: 100%; inhibition [2]: -7.53%; residual activity [3]: 100%; residual activity [4]: 100%; inhibition [5]: 1.89%; residual activity [6]: 100%; residual activity [7]: 93%; residual activity [8]: 91%; residual activity [9]: 93%; residual activity [10]: 67%; residual activity [11]: 100%; residual activity [12]: 100%; residual activity [13]: 100%; residual activity [14]: 81%; residual activity [15]: 76%; residual activity [16]: 92%; residual activity [17]: 100%; residual activity [18]: 100%; residual activity [19]: 77%; residual activity [20]: 100%; residual activity [21]: 100%; inhibition [22]: 2.28%; residual activity [23]: 100%; residual activity [24]: 89%; residual activity [25]: 89%; residual activity [26]: 100%; residual activity [27]: 100%; residual activity [28]: 77%; residual activity [29]: 100%; residual activity [30]: 100%; residual activity [31]: 100%; residual activity [32]: 100%; residual activity [33]: 100%; residual activity [34]: 100%; residual activity [35]: 72%; residual activity [36]: 59%; residual activity [37]: 100%; residual activity [38]: 67%
